Data taken from the supplement of paper PMC11061612.

How the values were obtained:
TGW (Neuroblastoma) = assay: Bliss excess, mean over the matrix (fraction); higher = more synergy
Outline: (§1)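 Cell lines in DMEM/F12 or RPMI with 10% FBS were plated in 1536-well plates, held 24 hours at 37°C, 5% CO2, then given two-drug dose matrices for 72 hours (DMSO typically 0.2%). Viability was read by CellTiter-Glo 2.0 luminescence and scaled as inhibition from 0 (vehicle wells) to 1 (blank wells). Combination Emax is the second-highest inhibition in the matrix; Bliss excess is observed combination effect minus expected EA + EB − EA·EB, EA and EB being single-agent effects.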

UACC-62 (Melanoma) = assay: as above
Outline: as §1

[1] = test system: JVM-3 (B-Cell Non-Hodgkin's Lymphoma); assay: as above
Outline: as §1

[2] = test system: JVM-3 (B-Cell Non-Hodgkin's Lymphoma); assay: combination Emax (second highest fraction inhibited in the dose matrix, 72 h); higher = more inhibition; extreme values may be limits of the assay
Outline: as §1
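Wherever Bliss excess, mean over the matrix is given: after 72 h of two-drug dosing.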

Compound	Bliss excess (TGW (Neuroblastoma))	Bliss excess (UACC-62 (Melanoma))	Bliss excess [1]	combination Emax [2]
CC1(C)CCC(CN2CCN(c3ccc(C(=O)NS(=O)(=O)c4ccc(NCC5CCOCC5)c([N+](=O)[O-])c4)c(Oc4cnc5[nH]ccc5c4)c3)CC2)=C(c2ccc(Cl)cc2)C1 [Venetoclax] + Cc1cc2ncnn2cc1Nc1ncc2c(n1)n(C1CCOCC1)c(=O)n2C [AZD7648] (first compound max 1 µM, 7x7, partner max 10 µM)	0.0025	-0.0424	-0.0799	0.64
CC1(C)CCC(CN2CCN(c3ccc(C(=O)NS(=O)(=O)c4ccc(NCC5CCOCC5)c([N+](=O)[O-])c4)c(Oc4cnc5[nH]ccc5c4)c3)CC2)=C(c2ccc(Cl)cc2)C1 [Venetoclax] + C1CN(CCC1(C(=O)N[C@@H](CCO)C2=CC=C(C=C2)Cl)N)C3=NC=NC4=C3C=CN4 [Capivasertib] (first compound max 1 µM, 7x7, partner max 3 µM)	-0.0211	-0.0238	0.0192	0.636
CC(=O)Nc1cccc(-n2c(=O)n(C3CC3)c(=O)c3c(Nc4ccc(I)cc4F)n(C)c(=O)c(C)c32)c1 [Trametinib] + Cc1nc(-c2cn3c(n2)-c2ccc(-c4cnn(C(C)(C)C(N)=O)c4)cc2OCC3)n(C(C)C)n1 [Taselisib] (first compound max 1 µM, 7x7, partner max 10 µM)	0.085	-0.0422	-0.006	0.734
Cc1c2c(nn1C)CSCc1cc(n(C)n1)CSc1cc(c3ccccc3c1)OCCCc1c(C(=O)O)n(C)c3c-2c(Cl)ccc13 [AZD5991] + CN(C)CCCOc1ccc(-c2ccc3ncc4c(c3c2)n(C2CCOCC2)c(=O)n4C)cn1 [AZD0156] (first compound max 1 µM, 7x7, partner max 1 µM)	-0.0079	-0.0516	-0.0613	0.509
Cc1c2c(nn1C)CSCc1cc(n(C)n1)CSc1cc(c3ccccc3c1)OCCCc1c(C(=O)O)n(C)c3c-2c(Cl)ccc13 [AZD5991] + Cc1cc2ncnn2cc1Nc1ncc2c(n1)n(C1CCOCC1)c(=O)n2C [AZD7648] (first compound max 1 µM, 7x7, partner max 10 µM)	-0.03	-0.0534	-0.0539	0.498
CC1(C)CCC(CN2CCN(c3ccc(C(=O)NS(=O)(=O)c4ccc(NCC5CCOCC5)c([N+](=O)[O-])c4)c(Oc4cnc5[nH]ccc5c4)c3)CC2)=C(c2ccc(Cl)cc2)C1 [Venetoclax] + Cn1cnc2c(F)c(Nc3ccc(Br)cc3Cl)c(C(=O)NOCCO)cc21 [Selumetinib] (first compound max 1 µM, 7x7, partner max 3 µM)	0.0099	-0.0235	-0.0583	0.486
COc1cccc(OCCCN)c1-c1cc(Nc2cnc(C#N)cn2)n[nH]1 [Prexasertib] + O=C(c1cc(Cc2n[nH]c(=O)c3ccccc23)ccc1F)N1CCN(C(=O)C2CC2)CC1 [Olaparib] (first compound max 1 µM, 7x7, partner max 10 µM)	-0.0665	-0.0183	-0.0314	0.986
CC1(C)CCC(CN2CCN(c3ccc(C(=O)NS(=O)(=O)c4ccc(NCC5CCOCC5)c([N+](=O)[O-])c4)c(Oc4cnc5[nH]ccc5c4)c3)CC2)=C(c2ccc(Cl)cc2)C1 [Venetoclax] + COc1cc(Nc2ncc3c(n2)-c2ccc(Cl)cc2C(c2c(F)cccc2OC)=NC3)ccc1C(=O)O [Alisertib] (first compound max 1 µM, 7x7, partner max 10 µM)	0.0858	0.01	0.215	0.823
CN(C)CCCOc1ccc(-c2ccc3ncc4c(c3c2)n(C2CCOCC2)c(=O)n4C)cn1 [AZD0156] + C[C@@H]1COCCN1C2=NC(=NC(=C2)C3(CC3)[S@](=N)(=O)C)C4=C5C=CNC5=NC=C4 [AZD6738] (first compound max 1 µM, 7x7, partner max 10 µM)	0.0307	-0.0035	-0.0183	0.783
Cc1c2c(nn1C)CSCc1cc(n(C)n1)CSc1cc(c3ccccc3c1)OCCCc1c(C(=O)O)n(C)c3c-2c(Cl)ccc13 [AZD5991] + C[C@@H](Nc1cc(F)cc(F)c1)c1cc(C(=O)N(C)C)cc2c(=O)cc(N3CCOCC3)oc12 [AZD8186] (first compound max 1 µM, 7x7, partner max 3 µM)	-0.0155	0.036	-0.0119	0.44
Cc1c2c(nn1C)CSCc1cc(n(C)n1)CSc1cc(c3ccccc3c1)OCCCc1c(C(=O)O)n(C)c3c-2c(Cl)ccc13 [AZD5991] + CC1(C)CCC(CN2CCN(c3ccc(C(=O)NS(=O)(=O)c4ccc(NCC5CCOCC5)c([N+](=O)[O-])c4)c(Oc4cnc5[nH]ccc5c4)c3)CC2)=C(c2ccc(Cl)cc2)C1 [Venetoclax] (first compound max 1 µM, 7x7, partner max 1 µM)	0.128	0.0296	0.146	0.764
CC1(C)CCC(CN2CCN(c3ccc(C(=O)NS(=O)(=O)c4ccc(NCC5CCOCC5)c([N+](=O)[O-])c4)c(Oc4cnc5[nH]ccc5c4)c3)CC2)=C(c2ccc(Cl)cc2)C1 [Venetoclax] + C[C@@H]1COCCN1C2=NC(=NC(=C2)C3(CC3)[S@](=N)(=O)C)C4=C5C=CNC5=NC=C4 [AZD6738] (first compound max 1 µM, 7x7, partner max 10 µM)	-0.0202	-0.0196	0.0106	0.9
COc1cccc(OCCCN)c1-c1cc(Nc2cnc(C#N)cn2)n[nH]1 [Prexasertib] + C=CCn1c(=O)c2cnc(Nc3ccc(N4CCN(C)CC4)cc3)nc2n1-c1cccc(C(C)(C)O)n1 [AZD1775] (first compound max 1 µM, partner max 1 µM)	0.0499	-0.0118	0.0369	0.973
COc1cccc(OCCCN)c1-c1cc(Nc2cnc(C#N)cn2)n[nH]1 [Prexasertib] + Cc1cc2ncnn2cc1Nc1ncc2c(n1)n(C1CCOCC1)c(=O)n2C [AZD7648] (first compound max 1 µM, 7x7, partner max 10 µM)	-0.0512	-0.0125	-0.027	0.981
Cc1c2c(nn1C)CSCc1cc(n(C)n1)CSc1cc(c3ccccc3c1)OCCCc1c(C(=O)O)n(C)c3c-2c(Cl)ccc13 [AZD5991] + C=CCn1c(=O)c2cnc(Nc3ccc(N4CCN(C)CC4)cc3)nc2n1-c1cccc(C(C)(C)O)n1 [AZD1775] (first compound max 1 µM, partner max 1 µM)	-0.0538	0.0675	-0.0884	0.92
CC1(C)CCC(CN2CCN(c3ccc(C(=O)NS(=O)(=O)c4ccc(NCC5CCOCC5)c([N+](=O)[O-])c4)c(Oc4cnc5[nH]ccc5c4)c3)CC2)=C(c2ccc(Cl)cc2)C1 [Venetoclax] + CN(C)CCCOc1ccc(-c2ccc3ncc4c(c3c2)n(C2CCOCC2)c(=O)n4C)cn1 [AZD0156] (first compound max 1 µM, 7x7, partner max 1 µM)	-0.0245	0.0254	0.0085	0.673
C=CCn1c(=O)c2cnc(Nc3ccc(N4CCN(C)CC4)cc3)nc2n1-c1cccc(C(C)(C)O)n1 [AZD1775] + O=C(c1cc(Cc2n[nH]c(=O)c3ccccc23)ccc1F)N1CCN(C(=O)C2CC2)CC1 [Olaparib] (first compound max 1 µM, partner max 10 µM)	-0.0383	-0.0207	-0.109	0.895
CC1(C)CCC(CN2CCN(c3ccc(C(=O)NS(=O)(=O)c4ccc(NCC5CCOCC5)c([N+](=O)[O-])c4)c(Oc4cnc5[nH]ccc5c4)c3)CC2)=C(c2ccc(Cl)cc2)C1 [Venetoclax] + C[C@@H](Nc1cc(F)cc(F)c1)c1cc(C(=O)N(C)C)cc2c(=O)cc(N3CCOCC3)oc12 [AZD8186] (first compound max 1 µM, 7x7, partner max 3 µM)	0.0136	0.0118	-0.0619	0.486
Cc1c2c(nn1C)CSCc1cc(n(C)n1)CSc1cc(c3ccccc3c1)OCCCc1c(C(=O)O)n(C)c3c-2c(Cl)ccc13 [AZD5991] + CCN(CCO)CCCOc1ccc2c(Nc3cc(CC(=O)Nc4cccc(F)c4)[nH]n3)ncnc2c1 [AZD2811] (first compound max 1 µM, 7x7, partner max 1 µM)	0.0418	-0.0113	0.0892	0.486
Cc1c2c(nn1C)CSCc1cc(n(C)n1)CSc1cc(c3ccccc3c1)OCCCc1c(C(=O)O)n(C)c3c-2c(Cl)ccc13 [AZD5991] + Cn1cnc2c(F)c(Nc3ccc(Br)cc3Cl)c(C(=O)NOCCO)cc21 [Selumetinib] (first compound max 1 µM, 7x7, partner max 3 µM)	0.0029	-0.0465	-0.0296	0.472
COc1cccc(OCCCN)c1-c1cc(Nc2cnc(C#N)cn2)n[nH]1 [Prexasertib] + CN(C)CCCOc1ccc(-c2ccc3ncc4c(c3c2)n(C2CCOCC2)c(=O)n4C)cn1 [AZD0156] (first compound max 1 µM, 7x7, partner max 1 µM)	-0.0253	0.0155	-0.0097	0.985
Cc1c2c(nn1C)CSCc1cc(n(C)n1)CSc1cc(c3ccccc3c1)OCCCc1c(C(=O)O)n(C)c3c-2c(Cl)ccc13 [AZD5991] + C[C@@H]1COCCN1C2=NC(=NC(=C2)C3(CC3)[S@](=N)(=O)C)C4=C5C=CNC5=NC=C4 [AZD6738] (first compound max 1 µM, 7x7, partner max 10 µM)	0.0167	0.0478	-0.0642	0.713
COc1cccc(OCCCN)c1-c1cc(Nc2cnc(C#N)cn2)n[nH]1 [Prexasertib] + C[C@@H]1COCCN1C2=NC(=NC(=C2)C3(CC3)[S@](=N)(=O)C)C4=C5C=CNC5=NC=C4 [AZD6738] (first compound max 1 µM, 7x7, partner max 10 µM)	-0.019	-0.0174	-0.0351	0.966
CCN(CCO)CCCOc1ccc2c(Nc3cc(CC(=O)Nc4cccc(F)c4)[nH]n3)ncnc2c1 [AZD2811] + O=C(c1cc(Cc2n[nH]c(=O)c3ccccc23)ccc1F)N1CCN(C(=O)C2CC2)CC1 [Olaparib] (first compound max 1 µM, 7x7, partner max 10 µM)	-0.0236	-0.004	-0.0119	0.45
CCN(CCO)CCCOc1ccc2c(Nc3cc(CC(=O)Nc4cccc(F)c4)[nH]n3)ncnc2c1 [AZD2811] + C[C@@H]1COCCN1C2=NC(=NC(=C2)C3(CC3)[S@](=N)(=O)C)C4=C5C=CNC5=NC=C4 [AZD6738] (first compound max 1 µM, 7x7, partner max 10 µM)	-0.0211	-0.0338	-0.0101	0.723
